Experiment [1] has as its system MCF10A HER2 mutant cell lines. As to the kind of experiment: MCF10A cell viability, HER2 exon 20 mutant cell lines together (average, selectivity vs HER2 WT, T-DM1 combination). In kind it is cell-based, human. How it is done: (§1) Briefly, 2000-3000 cells per well were plated in 384-well plates (Greiner Bio-One) in technical triplicate. Cells were treated with seven different concentrations of tyrosine kinase inhibitors or vehicle alone at a final volume of 40 μL per well. After 3 days, 11μL of Cell Titer Glo was added to each well. Plates were shaken for 15 minutes, and bioluminescence was determined using a FLUOstar OPTIMA multi-mode micro-plate reader (BMG LABTECH). Bioluminescence values were normalized to DMSO treated cells, and normalized values were plotted in GraphPad Prism using non-linear regression fit to normalized data with a variable slope.
Human Cell lines: MCF10A cells were purchased from ATCC and were cultured in DMEM/F12 media supplemented with 1% penicillin/streptomycin, 5% horse serum (sigma), 20 ng/ml EGF, […] hydrocortisone, and 10 μg/ml insulin. […] Two days after transduction, 0.5 μg/ml puromycin (Invitrogen) was added to the RPMI media. […] CW-2 cells were provided by the Riken cell line database under MTA, and were maintained in RPMI containing 10% FBS and 1% penicillin/streptomycin.

Experiment [2] has as its system Ba/F3 cells stably expressing HER2 mutations (exons 19, 20, 21). As to the kind of experiment: Ba/F3 HER2 mutant cell viability (Cell Titer Glo) TKI screen. Format: cell-based. As for the experimental part:
Briefly, stable Ba/F3 cell lines were generated by retroviral transduction of Ba/F3 cell line for 12 hours. […] Three days after transduction, 2 μg/ml puromycin (Invitrogen) was added to the RPMI media. After 5 days of selection, cells were stained with FITC-HER2 (Biolegend) sorted by FACS. Cell lines were then grown in the absence of IL-3 for two weeks and cell viability was assessed every three days using the Cell Titer Glo assay (Progema).
as §1

The subject of experiment [3] is p-HER2. As to the kind of experiment: Western blot of p-HER2 in MCF10A HER2 G776delinsVC cells. Format: cell-based, human. The settings on record: 10 nM, 2 hours treatment. As for the experimental part:
Western Blotting: For Western blotting, cells were washed in PBS and lysed in RIPPA lysis buffer (ThermoFisher) and protease inhibitor cocktail tablets (Roche). Protein (30-40 μg) was loaded into gels purchased from BioRad. BioRad semi-dry transfer was used and then probed with antibodies against, pHER2, HER2, pPI3K, PI3K, p-AKT, AKT, p-ERK1/2, and ERK1/2 (1:1000; Cell Signaling). Blots were probed with antibodies against vinculin or β-actin (Sigma-Aldrich) as a loading control, and exposed using ECL Western Blotting substrate (Promega).

Experiment [4] deals with cell surface HER2 on MCF10A cells expressing HER2 mutations. As to the kind of experiment: FACS of cell surface HER2 expression. In kind it is cell-based, human. The settings on record: 10 nM, 24 hours, average of MCF10A HER2 mutant lines. As for the experimental part: FACS: MCF10A cells overexpressing HER2 mutations were plated overnight in a 6-well plate, then treated with 10 nM poziotinib. After 24 hours, cells were washed twice with PBS, and trypsinized. Cells were then resuspended in 0.5% FBS in PBS, and stained with anti-HER2-FITC antibody from Biolegend (#324404) for 45 minutes on ice. Cells were washed with 0.5% FBS in PBS twice, and analyzed by flow cytometry. IgG and unstained controls were used for gating.

The subject of experiment [5] is CW-2 large intestine cells harboring HER2 exon 19 mutation L755S. The experiment is described as follows: CW-2 cell viability. The settings on record: Homo sapiens; CW-2 (HER2 L755S), 72 hours; read-out: average IC50. In kind it is cell-based. As for the experimental part: as §1, with “Cell Viability Assay and IC50 Estimation: Cell viability was determined using the Cell Titer Glo assay (Promega) as previously described (Robichaux et al., 2018). Briefly,” for “Briefly,”, “slope. IC50 values were calculated by GraphPad Prism at 50% inhibition.” for “slope.”
Human Cell lines: MCF10A cells were purchased from ATCC and were cultured in DMEM/F12 media supplemented with 1% penicillin/streptomycin, 5% horse serum (sigma), 20 ng/ml EGF, […] hydrocortisone, and 10 μg/ml insulin. Stable cell lines were created by retroviral transduction, and retroviruses were generated by transfecting pBabe-Puro based vectors summarized in Table 1 (Addgene and Bioinnovatise) into Phoenix 293T-ampho cells (Orbigen) using Lipofectamine 2000 (Invitrogen). […]

Setting [6] is: MCF10A HER2 exon 20 mutants, ratio of average IC50.

As to `C=CC(=O)N1CCC(Oc2cc3c(Nc4ccc(Cl)c(Cl)c4F)ncnc3cc2OC)CC1` [poziotinib, 1-[4-[4-(3,4-dichloro-2-fluoroanilino)-7-methoxyquinazolin-6-yl]oxypiperidin-1-yl]prop-2-en-1-one], in experiment [1] (setting [6]), the “times more potent than neratinib” value came out at 19 times and the “times more potent than tarloxotinib-TKI” value is listed as 2.6 times. Moreover, in experiment [1] (MCF10A HER2 mutant vs HER2 WT cell lines), the “selectivity index (SI, IC50 value mutant/IC50 value WT)” value is reported as 0.028. Also, the “average IC50 compared with afatinib, neratinib, or tarloxotinib-TKI” value in experiment [2] (HER2 exon 19 and 20 mutations) is on record as “significantly more efficacious”. In addition, in experiment [2] (HER2 exon 21 mutants), the “average IC50 compared with afatinib, neratinib, or tarloxotinib-TKI” value is listed as “no significant difference” and the “concentration inhibiting HER2 exon 21 mutants” value is reported as “low nanomolar concentrations”. In addition, in experiment [2] (all Ba/F3 HER2 mutant cell lines, 72 hours), the “average IC50 across all HER2 mutation variants and TKIs tested” value is given as “lowest average IC50”. The “inhibitory activity for HER2 mutants across all three exons” value in experiment [2] (exons 19, 20, 21, 72 hours) is given as “had inhibitory activity”. Besides, the “inhibition of p-HER2” value in experiment [3] is “completely inhibits”. Further, in experiment [4], the “increase of cell surface HER2 expression” value came to 2 fold. Further, the concentration for half-maximal inhibition (IC50) in experiment [5] came to 3.19 nM.

These data come from patent publication US12629375B2, “Compounds with anti-tumor activity against cancer cells bearing HER2 exon 21 insertions” (Board of Regents, The University of Texas System, priority 2019, dated 2026).
